The text below walks through data of patent US20110184068A1, “USE OF (HALOBENZYLOXY) BENZYLAMINO-PROPANAMIDES FOR THE MANUFACTURE OF MEDICAMENTS ACTIVE AS SODIUM AND/OR CALCIUM CHANNEL SELECTIVE MODULATORS” (Newron Pharmaceuticals S.p.A., priority 2004, published 2011).

Experiment [1] deals with T1, Na channel Nav 1.3 (Homo sapiens, UniProt Q9NY46).
T1 construct: expressed in transfected cells; host or cells: Xenopus laevis oocytes injected with Nav1.3 cRNA
Kind of experiment: Electrophysiological assay, tonic block, two electrodes voltage clamp in Xenopus oocytes. It is filed as cell-based. The settings on record: depolarized (-40 mV, half max current availability) condition, read-out: Nav 1.3 Dep. Curr IC50. The protocol: Electrophysiological Assay
Experiments for the determination of the tonic block are carried out on isolated Xenopus oocytes expressing the Na channel Nav 1.3. Currents are recorded using the two electrodes voltage clamp (TEVC) technique
The day after the preparation, the oocytes are injected (Drummond Nanoject) with 20 ng Nav1.3 cRNA and maintained in NDE.
Starting from 48 h after the mRNA injection whole cell currents are recorded using a two-microelectrode voltage clamp automated workstation.
Compounds are prepared in stock solutions (20 mM) and dissolved to the final concentrations in the external bath solution.
The current/voltage (I/V) relationship for the Nav1.3 currents expressed in oocytes was first studied in order to determine the membrane potential evoking the maximal activation.
The steady-state inactivation properties of the Nav1.3 currents were then studied in order to determine the membrane potentials for the resting state (Vrest) at which channel availability is maximal (Imax), and the membrane potential for the half maximal inactivation (V ½) producing half of the max current availability (I ½) respectively. This two voltage conditions were then used for the evaluation of the voltage dependence of the tonic block.
Finally a two-step protocol was used to determine the voltage dependence of the block of Nav1.3: the oocytes were clamped at −80 mV, the currents were activated by a 100 ms step pulse to 0 mV (Vtest) from a 3000 ms preconditioning potential at −80 mV (resting, Imax condition) and −40 mV (depolarized, I ½ condition), respectively.
Current amplitudes in the two conditions were recorded in the absence and in the presence of different concentrations of compound (washout was made in between) in order to determine the concentration-inhibition curves and IC50 values for the tonic block in the depolarized (half max current availability) conditions.
The activity on Nav 1.3 sodium channel, expressed as IC50 of the (R)-isomers of this invention and of the comparison compounds is reported in Table I.

The target of experiment [2] is T2, N-type calcium channels (Homo sapiens, UniProt Q00975).
T2 construct: IMR32 preferentially express on the membrane surface N-type calcium channels; endogenous in cells; host or cells: IMR32 human neuroblastoma cells, differentiated with dibutyryl-cAMP and bromodeoxyuridine
T2 sequence (Q00975 whole entry): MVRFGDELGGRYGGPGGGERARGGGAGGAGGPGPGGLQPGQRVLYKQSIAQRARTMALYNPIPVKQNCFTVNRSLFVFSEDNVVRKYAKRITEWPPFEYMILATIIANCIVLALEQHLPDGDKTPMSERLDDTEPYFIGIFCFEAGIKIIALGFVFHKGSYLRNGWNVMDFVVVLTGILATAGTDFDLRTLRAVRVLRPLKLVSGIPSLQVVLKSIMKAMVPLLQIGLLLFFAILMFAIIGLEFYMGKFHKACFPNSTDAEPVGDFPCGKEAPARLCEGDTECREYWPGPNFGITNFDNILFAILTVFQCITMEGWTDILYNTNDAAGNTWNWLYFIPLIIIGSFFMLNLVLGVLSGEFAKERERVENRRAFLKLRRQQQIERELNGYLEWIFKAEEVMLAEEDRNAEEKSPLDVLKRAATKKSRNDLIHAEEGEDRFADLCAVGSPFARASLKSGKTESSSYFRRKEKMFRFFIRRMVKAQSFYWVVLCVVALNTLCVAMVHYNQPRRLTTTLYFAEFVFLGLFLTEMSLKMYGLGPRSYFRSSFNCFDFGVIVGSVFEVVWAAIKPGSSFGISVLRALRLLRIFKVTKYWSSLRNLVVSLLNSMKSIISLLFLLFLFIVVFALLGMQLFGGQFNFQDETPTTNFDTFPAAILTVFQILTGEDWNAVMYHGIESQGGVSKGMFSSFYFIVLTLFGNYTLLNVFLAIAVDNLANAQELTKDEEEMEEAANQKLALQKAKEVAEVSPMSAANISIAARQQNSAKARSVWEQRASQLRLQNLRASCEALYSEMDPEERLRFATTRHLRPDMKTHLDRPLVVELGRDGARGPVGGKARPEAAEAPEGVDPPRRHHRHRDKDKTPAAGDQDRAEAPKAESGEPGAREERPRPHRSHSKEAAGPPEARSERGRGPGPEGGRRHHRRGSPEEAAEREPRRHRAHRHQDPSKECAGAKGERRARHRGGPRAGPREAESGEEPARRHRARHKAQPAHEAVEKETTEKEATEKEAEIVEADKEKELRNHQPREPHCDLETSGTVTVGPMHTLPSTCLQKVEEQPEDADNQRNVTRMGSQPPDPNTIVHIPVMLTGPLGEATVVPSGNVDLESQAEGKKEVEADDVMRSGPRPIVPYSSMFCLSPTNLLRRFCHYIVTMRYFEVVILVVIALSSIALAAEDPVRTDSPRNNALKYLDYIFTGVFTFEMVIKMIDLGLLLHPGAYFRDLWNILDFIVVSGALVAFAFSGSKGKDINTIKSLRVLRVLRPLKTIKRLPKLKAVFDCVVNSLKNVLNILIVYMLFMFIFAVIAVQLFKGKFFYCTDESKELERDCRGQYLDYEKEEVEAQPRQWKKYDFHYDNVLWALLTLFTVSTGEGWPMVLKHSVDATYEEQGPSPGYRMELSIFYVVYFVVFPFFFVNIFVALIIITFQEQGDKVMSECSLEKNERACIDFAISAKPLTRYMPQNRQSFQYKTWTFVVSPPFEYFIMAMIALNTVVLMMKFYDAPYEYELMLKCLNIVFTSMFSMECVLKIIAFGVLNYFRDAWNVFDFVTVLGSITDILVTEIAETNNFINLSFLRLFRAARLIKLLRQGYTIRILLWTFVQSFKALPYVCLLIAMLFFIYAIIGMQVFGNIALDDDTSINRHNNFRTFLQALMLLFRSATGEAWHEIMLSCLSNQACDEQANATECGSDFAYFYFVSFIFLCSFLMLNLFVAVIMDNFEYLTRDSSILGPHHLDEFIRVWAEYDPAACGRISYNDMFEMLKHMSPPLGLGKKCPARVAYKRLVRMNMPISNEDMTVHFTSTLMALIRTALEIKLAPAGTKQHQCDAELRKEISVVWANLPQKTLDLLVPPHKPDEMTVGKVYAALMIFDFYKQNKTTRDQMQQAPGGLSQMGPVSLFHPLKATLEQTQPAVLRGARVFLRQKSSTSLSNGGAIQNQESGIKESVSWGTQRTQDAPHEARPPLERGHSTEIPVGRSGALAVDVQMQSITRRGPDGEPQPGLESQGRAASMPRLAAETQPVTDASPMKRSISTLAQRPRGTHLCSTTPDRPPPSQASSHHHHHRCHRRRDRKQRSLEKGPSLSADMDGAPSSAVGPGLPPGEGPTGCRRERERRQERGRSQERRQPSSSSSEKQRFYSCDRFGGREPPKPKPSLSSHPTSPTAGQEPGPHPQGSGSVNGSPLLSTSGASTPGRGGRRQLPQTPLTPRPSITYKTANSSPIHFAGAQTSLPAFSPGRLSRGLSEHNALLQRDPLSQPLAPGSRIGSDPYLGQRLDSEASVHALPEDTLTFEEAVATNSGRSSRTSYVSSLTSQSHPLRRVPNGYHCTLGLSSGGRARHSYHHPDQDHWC
T2 sequence (P54284 whole entry partner): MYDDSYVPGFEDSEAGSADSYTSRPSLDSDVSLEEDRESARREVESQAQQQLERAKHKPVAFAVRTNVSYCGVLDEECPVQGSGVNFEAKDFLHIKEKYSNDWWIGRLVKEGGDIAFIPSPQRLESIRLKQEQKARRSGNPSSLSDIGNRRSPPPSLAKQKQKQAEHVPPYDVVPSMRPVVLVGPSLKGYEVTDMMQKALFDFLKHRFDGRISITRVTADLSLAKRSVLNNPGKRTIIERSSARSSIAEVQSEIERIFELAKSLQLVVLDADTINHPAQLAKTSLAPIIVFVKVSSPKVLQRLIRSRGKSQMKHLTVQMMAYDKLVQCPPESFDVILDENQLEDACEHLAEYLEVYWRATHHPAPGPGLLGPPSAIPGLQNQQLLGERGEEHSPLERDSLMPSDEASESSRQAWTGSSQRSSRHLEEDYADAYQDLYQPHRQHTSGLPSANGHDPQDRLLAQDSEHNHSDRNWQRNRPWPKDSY
T2 sequence (P54289 25-956 partner limits assumed): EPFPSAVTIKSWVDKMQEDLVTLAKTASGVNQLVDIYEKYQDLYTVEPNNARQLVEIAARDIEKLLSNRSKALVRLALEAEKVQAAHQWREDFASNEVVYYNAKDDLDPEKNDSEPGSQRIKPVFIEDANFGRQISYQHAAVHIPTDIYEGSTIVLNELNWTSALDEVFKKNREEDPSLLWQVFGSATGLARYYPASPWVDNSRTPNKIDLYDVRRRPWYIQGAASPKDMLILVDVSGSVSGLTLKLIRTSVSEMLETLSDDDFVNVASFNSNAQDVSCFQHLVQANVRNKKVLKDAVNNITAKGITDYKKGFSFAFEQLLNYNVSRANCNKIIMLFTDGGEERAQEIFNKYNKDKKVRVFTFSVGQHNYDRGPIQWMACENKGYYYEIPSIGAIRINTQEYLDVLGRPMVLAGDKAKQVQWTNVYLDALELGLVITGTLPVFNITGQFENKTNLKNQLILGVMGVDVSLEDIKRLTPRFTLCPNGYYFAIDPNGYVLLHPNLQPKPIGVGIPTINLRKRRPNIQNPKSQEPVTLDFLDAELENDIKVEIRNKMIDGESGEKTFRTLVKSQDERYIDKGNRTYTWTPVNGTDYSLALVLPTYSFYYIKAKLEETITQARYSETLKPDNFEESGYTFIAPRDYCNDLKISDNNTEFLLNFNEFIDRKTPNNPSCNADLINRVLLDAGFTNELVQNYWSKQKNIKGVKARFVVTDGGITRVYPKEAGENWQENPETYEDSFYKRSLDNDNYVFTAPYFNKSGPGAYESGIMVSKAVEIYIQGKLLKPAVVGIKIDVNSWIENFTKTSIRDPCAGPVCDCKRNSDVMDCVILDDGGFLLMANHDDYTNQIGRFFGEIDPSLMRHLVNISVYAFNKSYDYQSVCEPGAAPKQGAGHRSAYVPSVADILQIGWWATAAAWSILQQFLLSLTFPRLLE
T2 sequence (P54289 957-1103 partner limits assumed): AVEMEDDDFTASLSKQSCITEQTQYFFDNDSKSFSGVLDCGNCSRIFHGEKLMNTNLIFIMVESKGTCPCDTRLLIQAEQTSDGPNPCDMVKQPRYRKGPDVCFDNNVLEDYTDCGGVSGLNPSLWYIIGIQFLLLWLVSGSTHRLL
Kind of experiment: Calcium influx assay (fluorescence, differentiated IMR32 cells with nifedipine). It is filed as cell-based. The settings on record: 1 μM nifedipine, 100 mM KCl depolarization, read-out: Ca 2+ N-Type IC50. The procedure: Under differentiating conditions, IMR32 preferentially express on the membrane surface N-type calcium channels. The remaining L-type calcium channels were blocked using the selective L type blocker, nifedipine. In these experimental conditions, only N type channels can be detected.
IMR32 cells were differentiated using 1 mM dibutyryl-cAMP and 2.5 μM bromodeoxyuridine for 8 days (4 times) in 225 cm^2 flask, then detached, seeded at 200,000 cells/well on 96 polylysine-coated plates and further incubated for 18-24 h in the presence of differentiating buffer before use.
The Ca^2+ Kit Assay (Molecular Devices), based on a fluorescent calcium indicator 485-535 nm wavelength, was used.
Differentiated cells were incubated with dye loading for 30 min at 37° C. then, nifedipine alone (1 μM) or in the presence of w-conotoxin or test compounds were added for further 15 min.
The fluorescence (485-535 nm) was measured before and after (30-40 sec) the automated injection of 100 mM KCl depolarizing solution using a Victor plate reader (Perkin Elmer).
The inhibition curves were calculated from 5 concentrations, each in triplicate, and the IC50 determined using a linear regression analysis.
The activity on N-type Calcium channel, expressed as IC50 of the (R)-isomer of this invention and the comparison compounds is reported in Table I.

Experiment [3] concerns the target T3, MAO-B (Rattus norvegicus, UniProt P19643).
T3 construct: Membrane preparations (crude mitochondrial fraction); from tissue; host or cells: rat brain, crude mitochondrial fraction
T3 sequence (P19643 1-520): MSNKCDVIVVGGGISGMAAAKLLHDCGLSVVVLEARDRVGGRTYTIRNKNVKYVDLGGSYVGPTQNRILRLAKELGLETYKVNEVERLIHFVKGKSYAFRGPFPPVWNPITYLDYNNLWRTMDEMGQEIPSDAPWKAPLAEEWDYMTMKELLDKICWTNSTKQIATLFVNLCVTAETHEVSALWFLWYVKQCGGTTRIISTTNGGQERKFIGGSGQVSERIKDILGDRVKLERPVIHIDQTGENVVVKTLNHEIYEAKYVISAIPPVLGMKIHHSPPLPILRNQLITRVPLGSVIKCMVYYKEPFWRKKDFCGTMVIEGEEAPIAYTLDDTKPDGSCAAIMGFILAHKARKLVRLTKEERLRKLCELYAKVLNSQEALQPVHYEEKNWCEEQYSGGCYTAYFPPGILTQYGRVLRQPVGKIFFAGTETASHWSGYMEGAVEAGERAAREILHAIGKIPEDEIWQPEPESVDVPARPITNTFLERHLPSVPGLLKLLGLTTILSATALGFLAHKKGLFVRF
Briefly: In vitro MAO-B enzyme activity assay (radioenzymatic, 14C-phenylethylamine). The following applies: rat brain crude mitochondrial fraction; 30 min preincubation; concentration inhibiting 90% enzyme activity. It is filed as biochemical. The protocol:
In Vitro MAO-B Enzyme Activity Assay
Membrane preparations (crude mitochondrial fraction): male Wistar rats (Harlan, Italy-175-200 g) were sacrificed under light anaesthesia and brains were rapidly removed and homogenized in 8 vol. of ice-cold 0.32 M sucrose buffer containing 0.1 M EDTA, pH 7.4. The crude homogenate was centrifuged at 2220 rpm for 10 min and the supernatant recovered. The pellet was homogenized and centrifuged again and the two supernatants were pooled and centrifuged at 9250 rpm for 10 min, +4° C. The pellet was resuspended in fresh buffer and centrifuged at 11250 rpm for 10 min, +4° C. The resulting pellet was stored at −80° C. until use.
In vitro enzyme activity assay: the enzyme activities were assessed with a radioenzymatic assay using the selective substrate ^14C-phenylethylamine (PEA) for MAO-B.
The mitochondrial pellet (500 μg protein) was resuspended in 0.1M phosphate buffer pH 7.4 and 500 μl was added to 50 μl of the test compound or buffer for 30 min at 37° C. (preincubation) then the substrate (50 μl) was added. The incubation was carried out for 10 min at 37° C. (^14C-PEA, 0.5 μM).
The reaction was stopped by adding 0.2 ml HCl or perchloric acid. After centrifugation, the deaminated metabolites were extracted with 3 ml of toluene and the radioactive organic phase measured by liquid scintillation spectrometry at 90% efficiency. Radioactivity in the eluate indicates the production of neutral and acidic metabolites formed as a result of MAO-B activity.
The enzymatic activity was expressed as nmoles of substrate transformed/mg protein/min. The activity of MAO-B in the sample was expressed as a percentage of control activity in the absence of inhibitors after subtraction of appropriate blank values.
The drug inhibition curves were obtained from at least eight different concentrations, each in duplicate (10^−10 to 10^−5 M) and the IC90 values (the drug concentration inhibiting 90% enzyme activity) with confidence intervals determined using linear regression analysis. (aided-computer program).
To reach a significant increase in neurotransmitter levels, MAO-B enzyme activity has to be blocked at least by 90%.

Experiment [4] relates to mice. Kind of experiment: Mice formalin test. It is filed as in vivo. The settings on record: 20 mg/kg p.o. 15 min before formalin; cumulative licking time, late phase 30-40 min, vs control group. The procedure:
According to a modified protocol from Rosland et al., (1990) mice were injected subcutaneously (s.c.) with 20 μL of 2.7% solution of formalin into the plantar surface of left hindpaw and placed immediately into clear PVC observation chambers (23×12×13 cm).
The test compound (20 mg/kg) was administered p.o. 15 min before formalin injection in a volume of 10 ml/kg body weight to groups of 10 mice per dose. Control group was treated with vehicle.
Pain behavior was quantified by counting the cumulative licking time (seconds) of the injected paw with formalin. Measurements were taken during the late phase 30-40 min after formalin injection (Tjolsen et al 1992).
The analgesic effect of the compounds was calculated as the % of inhibition of the cumulative licking time respect the control group.

pIC50: −log10 of the molar value.

Regarding `CNC(=O)C(C)NCc1ccc(OCc2ccccc2Cl)cc1` (single isomer, unassigned; isomer 2) [2-[4-(2-chlorobenzyloxy)benzylamino]-N-methyl-propanamide S isomer, 2-[4-(2-chlorobenzyloxy)benzylamino]-N-methyl-propanamide], the results for the pIC50 in experiment [1] and in experiment [2] were 3.68 and 4.52, respectively. Besides, the 90% effect level in experiment [3] (IC90) was put at 2.8 µM. Moreover, the “FORMALIN TEST % inibition” value in experiment [4] was found to be 32%.

`CC(NCc1ccc(OCc2ccccc2F)cc1)C(N)=O` (single isomer, unassigned; isomer 2) [2-[4-(2-fluorobenzyloxy)benzylamino]-propanamide S isomer, 2-[4-(2-fluorobenzyloxy)benzylamino]-propanamide]: the pIC50 in experiment [1] was 3.69; in experiment [2] it was 4.64. Besides, the concentration for an effect of 90% (IC90) in experiment [3] was 28.4 µM. Also, the “FORMALIN TEST % inibition” value in experiment [4] was 79%.

Take `CC(NCc1ccc(OCc2cccc(Cl)c2)cc1)C(N)=O` (single isomer, unassigned; isomer 2) [2-[4-(3-chlorobenzyloxy)benzylamino]-propanamide S isomer, 2-[4-(3-chlorobenzyloxy)benzylamino]-propanamide]: the pIC50 in experiment [1] is 4.10; in experiment [2], 4.03. This molecule also came in with an IC90 in experiment [3] of 1.64 µM. For the same molecule, the “FORMALIN TEST % inibition” value in experiment [4] amounted to 45%.

Turning to `CNC(=O)[C@@H](C)NCc1ccc(OCc2ccccc2Cl)cc1.CS(=O)(=O)O` [2-[4-(2-chlorobenzyloxy)benzylamino]-N-methyl-propanamide R isomer, (R)-2-[4-(2-chlorobenzyloxy)benzylamino]-N-methylpropanamide methanesulfonate], the figures for the negative logarithm of the IC50 (pIC50) in experiment [1] and in experiment [2] were 4.42 and 5.08, respectively. In addition, the IC90 in experiment [3] was 122 µM. In experiment [4], the “FORMALIN TEST % inibition” value came to 49%.

`CS(=O)(=O)O.C[C@@H](NCc1ccc(OCc2ccccc2F)cc1)C(N)=O` [2-[4-(2-fluorobenzyloxy)benzylamino]-propanamide R isomer, (R)-2-[4-(2-fluorobenzyloxy)benzylamino]propanamide methanesulfonate]: the negative logarithm of the IC50 (pIC50) in experiment [1] is 3.83; in experiment [2] it was 4.53. Further, it took 2500 µM to reach the 90% level in experiment [3] (IC90). The “FORMALIN TEST % inibition” value in experiment [4] was 80%.

Turning to `CS(=O)(=O)O.C[C@@H](NCc1ccc(OCc2cccc(Cl)c2)cc1)C(N)=O` [2-[4-(3-chlorobenzyloxy)benzylamino]-propanamide R isomer, (R)-2-[4-(3-chlorobenzyloxy)benzylamino]propanamide methanesulfonate], the negative logarithm of the IC50 (pIC50) is 4.41 in experiment [1] and 4.70 in experiment [2]. The molecule further displayed an IC90 in experiment [3] of 32.3 µM. For the same molecule, the “FORMALIN TEST % inibition” value in experiment [4] was 39%.

In general, pIC50 refers to −log10 of the IC50, conventionally taken in molar units. As a reminder, the IC90 is the concentration at which the effect reaches the 90% level.
